Results reported in the kinase profiling compilation of Christmann-Franck et al. (2016).

How the values were obtained:
Test in all cases: radiometric filter-binding kinase assay, Kinase HotSpot
Details in all cases: compound 0.5 µM; ATP 10 µM
[1] = biological target: ABL1 (human) (UniProt P00519)
[2] = biological target: ACVRL1 (human) (UniProt P37023)
[3] = biological target: ADRBK1 (human) (UniProt P25098)
[4] = system: ARAF (human), P10398 [Y301D/Y302D]
[5] = biological target: BRAF (human) (UniProt P15056)
[6] = biological target: CAMK1D (human) (UniProt Q8IU85)
[7] = biological target: CAMKK2 (human) (UniProt Q96RR4)
[8] = biological target: CDC42BPA (human) (UniProt Q5VT25)
[9] = biological target: CHEK1 (human) (UniProt O14757)
[10] = biological target: CSNK2A2 (human) (UniProt P19784)
[11] = biological target: DAPK1 (human) (UniProt P53355)
[12] = biological target: DMPK (human) (UniProt Q09013)
[13] = biological target: DYRK1A (human) (UniProt Q13627)
[14] = biological target: EGFR (human) (UniProt P00533)
[15] = biological target: EPHB2 (human) (UniProt P29323)
[16] = biological target: FGFR3 (human) (UniProt P22607)
[17] = biological target: HIPK4 (human) (UniProt Q8NE63)
[18] = biological target: IRAK1 (human) (UniProt P51617)
[19] = biological target: LTK (human) (UniProt P29376)
[20] = biological target: MAPK12 (human) (UniProt P53778)
[21] = biological target: NEK4 (human) (UniProt P51957)
[22] = biological target: NEK7 (human) (UniProt Q8TDX7)
[23] = biological target: OXSR1 (human) (UniProt O95747)
[24] = biological target: PIM1 (human) (UniProt P11309)
[25] = biological target: PRKCG (human) (UniProt P05129)
[26] = biological target: PTK6 (human) (UniProt Q13882)
[27] = biological target: RPS6KB2 (human) (UniProt Q9UBS0)
[28] = biological target: SRPK2 (human) (UniProt P78362)
[29] = biological target: STK24 (human) (UniProt Q9Y6E0)
[30] = biological target: TGFBR2 (human) (UniProt P37173)
[31] = biological target: TSSK1B (human) (UniProt Q9BXA7)
[32] = biological target: TTK (human) (UniProt P33981)
[33] = biological target: TYRO3 (human) (UniProt Q06418)
[34] = biological target: LCK (human) (UniProt P06239)
[35] = biological target: PDGFRB (human) (UniProt P09619)

HIPK4 (human), sequence (Q8NE63 whole entry, looked up): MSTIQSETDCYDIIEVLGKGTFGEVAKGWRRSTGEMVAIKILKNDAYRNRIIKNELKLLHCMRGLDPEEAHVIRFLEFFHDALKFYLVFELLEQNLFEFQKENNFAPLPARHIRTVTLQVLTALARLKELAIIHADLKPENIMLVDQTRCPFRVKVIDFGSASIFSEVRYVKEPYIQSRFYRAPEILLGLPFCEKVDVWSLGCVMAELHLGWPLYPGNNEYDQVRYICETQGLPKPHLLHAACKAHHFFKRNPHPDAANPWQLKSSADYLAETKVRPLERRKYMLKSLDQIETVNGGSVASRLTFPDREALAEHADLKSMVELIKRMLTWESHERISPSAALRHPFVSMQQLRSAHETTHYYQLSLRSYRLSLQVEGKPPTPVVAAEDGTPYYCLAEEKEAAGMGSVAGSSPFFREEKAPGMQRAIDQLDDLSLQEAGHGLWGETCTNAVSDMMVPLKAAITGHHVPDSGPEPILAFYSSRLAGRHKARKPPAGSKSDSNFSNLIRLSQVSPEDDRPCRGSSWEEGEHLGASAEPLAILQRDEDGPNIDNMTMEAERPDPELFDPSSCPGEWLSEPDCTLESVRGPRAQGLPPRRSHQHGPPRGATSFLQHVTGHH
PTK6 (human), sequence (Q13882 whole entry, looked up): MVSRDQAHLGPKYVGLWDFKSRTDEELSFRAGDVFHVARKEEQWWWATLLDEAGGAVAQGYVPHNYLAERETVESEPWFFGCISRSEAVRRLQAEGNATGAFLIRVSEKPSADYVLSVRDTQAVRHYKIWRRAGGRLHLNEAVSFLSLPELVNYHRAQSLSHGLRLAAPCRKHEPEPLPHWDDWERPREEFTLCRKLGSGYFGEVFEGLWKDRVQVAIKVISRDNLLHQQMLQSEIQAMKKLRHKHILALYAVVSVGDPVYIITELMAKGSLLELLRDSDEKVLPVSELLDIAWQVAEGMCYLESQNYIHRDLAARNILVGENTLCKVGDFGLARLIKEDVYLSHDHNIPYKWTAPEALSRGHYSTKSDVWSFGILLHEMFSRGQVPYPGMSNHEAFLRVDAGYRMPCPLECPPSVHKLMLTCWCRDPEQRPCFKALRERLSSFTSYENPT
ARAF (human), P10398 [Y301D/Y302D], sequence (P10398 whole entry Y301D/Y302D, looked up): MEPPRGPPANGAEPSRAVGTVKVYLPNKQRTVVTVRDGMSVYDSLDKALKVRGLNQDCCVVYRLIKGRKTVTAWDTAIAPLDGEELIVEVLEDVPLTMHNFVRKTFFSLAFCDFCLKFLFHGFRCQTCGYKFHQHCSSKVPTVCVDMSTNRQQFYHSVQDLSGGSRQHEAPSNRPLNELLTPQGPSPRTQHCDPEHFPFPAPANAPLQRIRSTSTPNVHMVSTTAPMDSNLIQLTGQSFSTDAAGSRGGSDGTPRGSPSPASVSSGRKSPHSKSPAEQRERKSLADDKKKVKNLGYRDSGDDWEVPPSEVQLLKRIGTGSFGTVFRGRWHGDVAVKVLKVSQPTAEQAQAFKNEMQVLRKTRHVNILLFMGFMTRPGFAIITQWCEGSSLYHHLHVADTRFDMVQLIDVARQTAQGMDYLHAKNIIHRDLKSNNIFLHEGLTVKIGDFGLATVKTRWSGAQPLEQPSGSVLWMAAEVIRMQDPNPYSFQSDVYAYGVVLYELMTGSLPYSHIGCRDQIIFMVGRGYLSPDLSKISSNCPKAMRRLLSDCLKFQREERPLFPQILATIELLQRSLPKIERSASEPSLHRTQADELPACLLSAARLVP
PIM1 (human), sequence (P11309 whole entry, looked up): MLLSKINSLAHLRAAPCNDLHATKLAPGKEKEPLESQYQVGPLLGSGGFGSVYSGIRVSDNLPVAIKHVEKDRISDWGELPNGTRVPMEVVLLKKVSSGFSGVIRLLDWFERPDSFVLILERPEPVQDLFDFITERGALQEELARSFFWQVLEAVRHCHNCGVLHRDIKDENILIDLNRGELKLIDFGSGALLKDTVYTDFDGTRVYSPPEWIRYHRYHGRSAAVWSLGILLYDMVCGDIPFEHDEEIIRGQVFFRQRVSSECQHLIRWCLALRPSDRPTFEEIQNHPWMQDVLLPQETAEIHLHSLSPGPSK
OXSR1 (human), sequence (O95747 whole entry, looked up): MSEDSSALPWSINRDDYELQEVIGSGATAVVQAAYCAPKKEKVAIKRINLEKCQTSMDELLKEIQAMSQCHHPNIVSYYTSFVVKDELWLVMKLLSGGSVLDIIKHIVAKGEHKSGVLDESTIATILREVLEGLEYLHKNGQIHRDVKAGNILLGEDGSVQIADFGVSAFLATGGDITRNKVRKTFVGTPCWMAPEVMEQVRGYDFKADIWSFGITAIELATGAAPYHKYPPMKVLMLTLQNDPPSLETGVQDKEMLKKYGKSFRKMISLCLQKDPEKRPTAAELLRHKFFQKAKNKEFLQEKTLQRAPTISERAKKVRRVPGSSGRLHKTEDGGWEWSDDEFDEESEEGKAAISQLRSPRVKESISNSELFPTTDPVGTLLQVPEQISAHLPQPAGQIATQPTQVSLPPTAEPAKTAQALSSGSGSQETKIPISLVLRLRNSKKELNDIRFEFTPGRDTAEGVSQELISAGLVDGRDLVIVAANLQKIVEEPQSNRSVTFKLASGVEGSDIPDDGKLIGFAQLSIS
CHEK1 (human), sequence (O14757 whole entry, looked up): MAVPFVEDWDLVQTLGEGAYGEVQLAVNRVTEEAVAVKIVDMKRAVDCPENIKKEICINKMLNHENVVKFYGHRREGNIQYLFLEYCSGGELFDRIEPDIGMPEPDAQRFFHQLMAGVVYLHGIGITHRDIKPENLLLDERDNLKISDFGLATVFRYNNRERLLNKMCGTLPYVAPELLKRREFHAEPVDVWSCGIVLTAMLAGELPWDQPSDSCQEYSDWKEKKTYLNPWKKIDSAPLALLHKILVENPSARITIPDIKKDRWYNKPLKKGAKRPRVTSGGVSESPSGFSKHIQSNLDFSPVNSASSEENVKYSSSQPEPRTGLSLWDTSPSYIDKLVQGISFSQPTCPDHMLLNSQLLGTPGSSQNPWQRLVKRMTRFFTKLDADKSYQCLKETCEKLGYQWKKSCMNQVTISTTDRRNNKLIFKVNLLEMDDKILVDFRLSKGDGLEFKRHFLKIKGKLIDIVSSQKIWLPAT
RPS6KB2 (human), sequence (Q9UBS0 whole entry, looked up): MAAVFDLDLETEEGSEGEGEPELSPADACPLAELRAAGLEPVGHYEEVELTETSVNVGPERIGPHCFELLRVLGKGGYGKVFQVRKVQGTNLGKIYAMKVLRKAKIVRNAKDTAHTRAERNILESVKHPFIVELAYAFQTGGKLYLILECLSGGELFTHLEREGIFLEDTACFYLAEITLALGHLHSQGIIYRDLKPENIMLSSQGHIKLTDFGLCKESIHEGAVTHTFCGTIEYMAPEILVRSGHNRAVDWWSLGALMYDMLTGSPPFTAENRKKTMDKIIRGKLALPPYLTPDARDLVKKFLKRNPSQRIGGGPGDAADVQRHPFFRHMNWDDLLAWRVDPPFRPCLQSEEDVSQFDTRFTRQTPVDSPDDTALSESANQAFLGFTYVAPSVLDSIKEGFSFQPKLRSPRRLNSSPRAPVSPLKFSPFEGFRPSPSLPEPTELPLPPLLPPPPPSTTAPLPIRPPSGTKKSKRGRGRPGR
LCK (human), sequence (P06239 whole entry, looked up): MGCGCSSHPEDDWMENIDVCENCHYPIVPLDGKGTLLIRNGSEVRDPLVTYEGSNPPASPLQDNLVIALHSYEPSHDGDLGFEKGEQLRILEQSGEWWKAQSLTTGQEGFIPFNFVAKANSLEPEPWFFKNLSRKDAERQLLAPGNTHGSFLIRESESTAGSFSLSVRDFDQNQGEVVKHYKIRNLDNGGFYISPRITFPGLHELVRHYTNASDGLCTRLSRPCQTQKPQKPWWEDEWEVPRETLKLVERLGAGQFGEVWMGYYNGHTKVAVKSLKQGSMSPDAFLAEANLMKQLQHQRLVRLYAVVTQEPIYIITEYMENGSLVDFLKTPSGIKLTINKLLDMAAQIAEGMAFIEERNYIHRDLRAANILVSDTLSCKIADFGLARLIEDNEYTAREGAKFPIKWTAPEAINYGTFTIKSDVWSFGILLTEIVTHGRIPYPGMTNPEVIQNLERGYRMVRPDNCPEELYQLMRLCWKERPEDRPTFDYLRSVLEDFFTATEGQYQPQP
NEK7 (human), sequence (Q8TDX7 whole entry, looked up): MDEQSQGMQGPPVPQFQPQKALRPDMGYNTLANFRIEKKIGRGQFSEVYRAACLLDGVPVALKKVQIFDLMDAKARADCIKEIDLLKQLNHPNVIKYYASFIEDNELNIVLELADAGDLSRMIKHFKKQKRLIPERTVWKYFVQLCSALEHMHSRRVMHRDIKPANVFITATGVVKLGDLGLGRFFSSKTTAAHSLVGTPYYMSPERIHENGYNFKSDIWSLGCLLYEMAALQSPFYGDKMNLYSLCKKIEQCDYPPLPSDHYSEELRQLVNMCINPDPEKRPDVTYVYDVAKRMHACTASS

Structure (SMILES)	residual activity [2]	residual activity [3]	residual activity [4]	residual activity [5]	residual activity [7]	residual activity [8]	residual activity [10]	residual activity [11]	residual activity [12]	residual activity [13]	residual activity [15]	residual activity [16]	residual activity [17]	residual activity [18]	residual activity [19]	residual activity [20]	residual activity [21]	residual activity [22]	residual activity [23]	residual activity [24]	further results
CC(C)(C)c1nc2c3ccc(F)cc3c3c(=O)[nH]ccc3c2[nH]1	105%	98.5%	122%	117%	69.4%	95.7%	91.5%	3.03%	105%	102%	92.8%	93%	107%	76.3%	20.6%	97.9%	65.6%	76.5%	100%	38.6%	residual activity [1]: 98.4%; residual activity [6]: 81.6%; residual activity [9]: 22.9%; residual activity [14]: 94.8%; residual activity [25]: 79.9%; residual activity [26]: 88%; residual activity [27]: 102%; residual activity [28]: 70.5%; residual activity [29]: 82.4%; residual activity [30]: 58.2%; residual activity [31]: 37.3%; residual activity [32]: 65.3%; residual activity [33]: 90.3%
O=C1Nc2cc(Br)ccc2/C1=C1/Nc2ccccc2/C1=N\O	103%	97.3%	99.8%	98.2%	70.1%	94%	63.1%	90%	124%	101%	74.7%	54.6%	106%	103%	89.3%	93.8%	96.7%	103%	100%	96.1%	residual activity [9]: 57.1%; residual activity [14]: 89%; residual activity [34]: 39%; residual activity [35]: 35.2%; residual activity [25]: 90.9%; residual activity [26]: 89.3%; residual activity [27]: 100%; residual activity [28]: 63.9%; residual activity [29]: 90.9%; residual activity [30]: 106%; residual activity [31]: 83%; residual activity [32]: 69.8%; residual activity [33]: 81.6%
Nc1nc(Nc2ccc(S(N)(=O)=O)cc2)nn1C(=S)Nc1c(F)cccc1F	15.1%	97.8%	129%	87.2%	5.4%	54.6%	81.9%	81.3%	78.4%	15.3%	81.4%	4.96%	50.6%	16.9%	27.6%	95.2%	60.5%	82.6%	67.6%	90.7%	residual activity [1]: 4.96%; residual activity [6]: 93.4%; residual activity [34]: 23.6%; residual activity [35]: 45.6%; residual activity [25]: 93%; residual activity [26]: 34.8%; residual activity [27]: 96.2%; residual activity [28]: 17.1%; residual activity [29]: 2.88%; residual activity [30]: 89.3%; residual activity [31]: 13.7%; residual activity [32]: 60.6%; residual activity [33]: 29.8%
Nc1nc(Nc2ccc(S(N)(=O)=O)cc2)nn1C(=O)c1c(F)cccc1F	88.5%	97.3%	93.1%	55%	61.5%	97.5%	97.5%	93.8%	93.2%	101%	96.1%	46.4%	67.7%	89.8%	85.8%	89.9%	79.2%	99%	88.8%	97.6%	residual activity [6]: 97.7%; residual activity [9]: 76.3%; residual activity [14]: 97%; residual activity [34]: 87.9%; residual activity [35]: 89.1%; residual activity [25]: 81.3%; residual activity [26]: 83.9%; residual activity [27]: 104%; residual activity [28]: 54.9%; residual activity [29]: 76.9%; residual activity [30]: 98.5%; residual activity [31]: 85.5%; residual activity [32]: 77.5%; residual activity [33]: 98.6%
